Measurements published in patent US20130273113A1 (priority 2012, published 2013).

Assays:
[1] = test system: primary nasal septal epithelial cells; type: cell-based, C57BL/6N mice
TC-1 epithelial cells = type: cell-based, murine
[2] = test system: Bone marrow derived dendritic cells (BMDC); type: cell-based, C57BL/6 mice
[3] = test system: B6.Cg-Tg(HLA-A/H2-D)2Enge/J mice; conditions: mouse, in vivo
nasal septal tissue = test system: nasal septal tissue; parameters: species or system C57BL/6 mice; conditions: mouse, in vivo
nasal epithelial cells = test: Detection of apoptosis (caspase-3 staining) and necrosis (morphology) in nasal epithelium; conditions: 2 hours following nasal treatment, 15 μl

Molecule | surface expression of MHC class II [1] | IL-6, TGF-β and TSLP in TC-1 supernatant (TC-1 epithelial cells) | cytokines and chemokines in BMDC supernatant [2] | end titer of anti-HBsAg IgG [3] | secreted anti-HBsAg IgA [3] | cytokine response profile in nasal septal tissue (nasal septal tissue) | inflammation in nasal epithelium (nasal epithelial cells)
cholera toxin [CT] | no significant difference | only IL-6 was induced | stimulated IL-1α, IL-1β and MIP-1α in BMDC in addition to IL-10, G-CSF, IL-10, IL-4, IL-6, IL-9, IL-12, IL-15, IL-17, TNF-α, and KC | 6.4×10^5 | equivalent local mucosal immune responses | increases in only IL-6 and IL-12 common to both NE and CT | –
CCCCCCCCCCCCCCCC[n+]1ccccc1 [CPC, cetylpyridinium chloride] | – | – | – | – | – | – | neutrophilic infiltration
